Experimental data from patent US20250235424A1, “PHARMACEUTICAL COMPOSITION CONTAINING DOCETAXEL OR PHARMACEUTICALLY ACCEPTABLE SALT THEREOF AND PREPARATION METHOD THEREFOR” (WEBIOTREE CO., LTD, priority 2022, published 2025).

Assays:
[1] = In-vivo pharmacokinetic analysis (beagle), single oral administration; details: dog, plasma, beagles, Docetaxel PO 50 mg/kg
Source text: The compositions of Example 83 and Comparative Example 1 were single orally administered to beagles to obtain plasma drug concentration information. The results are shown in Tables 12 and 13 below and FIGS. 8 and 9.

[2] = in vivo; details: rat, po, 50 mg/kg
Protocol: The graphs of FIGS. 1, 3, 5, and 6 show the docetaxel concentrations in plasma over time in rats, which were measured by collecting blood at 0 hr, 0.25 hr, 0.5 hr, 1 hr, 2 hr, 4 hr, 6 hr, 8 hr, and 12 hr.

AUC(0-t) [1]: 1.86 ng·h/mL
Cmax [1]: 0.5 ng/mL
Tmax [1]: 3.5 h
concentration at 0.25 h ([1]; 0.25 h, mean n = 2): 0.239 ng/mL
concentration at 0.5 h ([1]; 0.5 h, mean n = 2): 0.219 ng/mL
concentration at 1 h ([1]; 1 h, mean n = 2): 0.243 ng/mL
concentration at 2 h ([1]; 2 h, mean n = 2): 0.14 ng/mL
concentration at 4 h ([1]; 4 h, mean n = 2): 0.621 ng/mL
concentration at 6 h ([1]; 6 h, mean n = 2): 0.675 ng/mL
concentration at 8 h ([1]; 8 h, mean n = 2): 0.222 ng/mL
AUC(0-t) [2]: 0.85 ng·h/mL
Cmax [2]: 0.12 ng/mL
Tmax [2]: 12 h
SMILES: CC(=O)O[C@@]12CO[C@@H]1C[C@H](O)[C@@]1(C)C(=O)[C@H](O)C3=C(C)[C@@H](OC(=O)[C@H](O)[C@@H](NC(=O)OC(C)(C)C)c4ccccc4)C[C@@](O)([C@@H](OC(=O)c4ccccc4)[C@H]21)C3(C)C [Comparative Example 1, Docetaxel]
